# Article PMC11345841, “Exploring 2-Sulfonylpyrimidine Warheads as Acrylamide Surrogates for Targeted Covalent Inhibition: A BTK Story” (Journal of Medicinal Chemistry, 2024)
# Where two headings read alike, the source gives them in different places.
# What was measured:
# Experiment in all cases: KINOMEscan ScanTK
# Type in all cases: binding
# ZAP70 = target: T1, ZAP70 (Homo sapiens, UniProt P43403)
# T1 construct: purchased Eurofins DiscoverX KINOMEscan (scanTK)
# T1 sequence (P43403 1-619): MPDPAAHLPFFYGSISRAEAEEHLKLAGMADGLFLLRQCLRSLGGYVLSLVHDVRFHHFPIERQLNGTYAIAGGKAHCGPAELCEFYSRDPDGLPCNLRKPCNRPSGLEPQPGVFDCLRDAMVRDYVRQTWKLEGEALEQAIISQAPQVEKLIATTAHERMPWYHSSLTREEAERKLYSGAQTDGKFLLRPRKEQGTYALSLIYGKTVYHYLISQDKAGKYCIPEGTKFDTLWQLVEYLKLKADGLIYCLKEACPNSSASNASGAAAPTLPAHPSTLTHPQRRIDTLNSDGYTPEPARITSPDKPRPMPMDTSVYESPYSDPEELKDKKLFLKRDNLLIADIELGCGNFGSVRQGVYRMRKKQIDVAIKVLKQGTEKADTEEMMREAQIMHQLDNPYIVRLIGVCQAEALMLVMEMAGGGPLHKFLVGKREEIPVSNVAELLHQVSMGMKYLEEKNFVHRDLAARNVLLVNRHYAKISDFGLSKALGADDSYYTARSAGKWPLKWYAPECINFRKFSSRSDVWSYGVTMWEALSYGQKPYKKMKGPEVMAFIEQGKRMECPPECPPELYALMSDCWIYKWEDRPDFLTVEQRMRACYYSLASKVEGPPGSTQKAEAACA
# FLT4 = target: T2, FLT4 (Homo sapiens, UniProt P35916)
# T2 construct: purchased Eurofins DiscoverX KINOMEscan (scanTK)
# T2 sequence (P35916 25-1363): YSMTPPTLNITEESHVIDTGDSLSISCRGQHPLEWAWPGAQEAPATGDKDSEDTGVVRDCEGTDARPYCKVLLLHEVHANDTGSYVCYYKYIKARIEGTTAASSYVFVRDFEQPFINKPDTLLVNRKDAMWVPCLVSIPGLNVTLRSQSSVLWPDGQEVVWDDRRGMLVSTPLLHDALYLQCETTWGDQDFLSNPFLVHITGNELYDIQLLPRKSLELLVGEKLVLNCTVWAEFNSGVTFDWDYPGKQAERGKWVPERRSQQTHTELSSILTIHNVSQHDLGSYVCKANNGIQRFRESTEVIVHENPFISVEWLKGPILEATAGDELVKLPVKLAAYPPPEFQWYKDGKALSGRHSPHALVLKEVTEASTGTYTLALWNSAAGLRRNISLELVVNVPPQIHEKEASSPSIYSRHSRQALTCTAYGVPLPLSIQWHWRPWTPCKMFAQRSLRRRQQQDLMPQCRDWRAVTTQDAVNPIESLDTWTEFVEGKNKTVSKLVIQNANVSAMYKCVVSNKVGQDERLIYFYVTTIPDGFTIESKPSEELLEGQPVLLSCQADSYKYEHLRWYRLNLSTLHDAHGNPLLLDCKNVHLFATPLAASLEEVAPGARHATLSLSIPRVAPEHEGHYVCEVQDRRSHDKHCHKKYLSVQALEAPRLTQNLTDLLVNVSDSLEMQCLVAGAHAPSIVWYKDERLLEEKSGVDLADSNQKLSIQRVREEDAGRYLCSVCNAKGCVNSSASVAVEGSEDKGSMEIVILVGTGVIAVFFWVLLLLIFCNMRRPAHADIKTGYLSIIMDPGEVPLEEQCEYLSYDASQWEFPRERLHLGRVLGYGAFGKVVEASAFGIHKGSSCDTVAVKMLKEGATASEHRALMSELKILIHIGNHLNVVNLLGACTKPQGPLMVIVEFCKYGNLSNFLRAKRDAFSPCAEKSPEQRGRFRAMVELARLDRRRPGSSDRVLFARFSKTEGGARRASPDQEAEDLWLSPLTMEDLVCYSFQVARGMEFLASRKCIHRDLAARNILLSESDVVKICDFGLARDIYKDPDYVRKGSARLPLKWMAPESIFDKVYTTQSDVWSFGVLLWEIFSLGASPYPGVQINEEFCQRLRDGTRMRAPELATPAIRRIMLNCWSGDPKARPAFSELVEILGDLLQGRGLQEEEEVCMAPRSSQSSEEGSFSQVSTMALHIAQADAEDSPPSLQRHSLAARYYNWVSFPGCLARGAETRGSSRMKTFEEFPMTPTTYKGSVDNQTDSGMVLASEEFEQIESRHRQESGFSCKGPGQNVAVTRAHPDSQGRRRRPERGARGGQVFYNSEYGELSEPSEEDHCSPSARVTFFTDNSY
# [1] = target: T3, ABL1(F317I)-phosphorylated (Homo sapiens, UniProt P00519, F317I)
# T3 construct: purchased Eurofins DiscoverX KINOMEscan (scanTK)
# T3 sequence (P00519 whole entry F317I): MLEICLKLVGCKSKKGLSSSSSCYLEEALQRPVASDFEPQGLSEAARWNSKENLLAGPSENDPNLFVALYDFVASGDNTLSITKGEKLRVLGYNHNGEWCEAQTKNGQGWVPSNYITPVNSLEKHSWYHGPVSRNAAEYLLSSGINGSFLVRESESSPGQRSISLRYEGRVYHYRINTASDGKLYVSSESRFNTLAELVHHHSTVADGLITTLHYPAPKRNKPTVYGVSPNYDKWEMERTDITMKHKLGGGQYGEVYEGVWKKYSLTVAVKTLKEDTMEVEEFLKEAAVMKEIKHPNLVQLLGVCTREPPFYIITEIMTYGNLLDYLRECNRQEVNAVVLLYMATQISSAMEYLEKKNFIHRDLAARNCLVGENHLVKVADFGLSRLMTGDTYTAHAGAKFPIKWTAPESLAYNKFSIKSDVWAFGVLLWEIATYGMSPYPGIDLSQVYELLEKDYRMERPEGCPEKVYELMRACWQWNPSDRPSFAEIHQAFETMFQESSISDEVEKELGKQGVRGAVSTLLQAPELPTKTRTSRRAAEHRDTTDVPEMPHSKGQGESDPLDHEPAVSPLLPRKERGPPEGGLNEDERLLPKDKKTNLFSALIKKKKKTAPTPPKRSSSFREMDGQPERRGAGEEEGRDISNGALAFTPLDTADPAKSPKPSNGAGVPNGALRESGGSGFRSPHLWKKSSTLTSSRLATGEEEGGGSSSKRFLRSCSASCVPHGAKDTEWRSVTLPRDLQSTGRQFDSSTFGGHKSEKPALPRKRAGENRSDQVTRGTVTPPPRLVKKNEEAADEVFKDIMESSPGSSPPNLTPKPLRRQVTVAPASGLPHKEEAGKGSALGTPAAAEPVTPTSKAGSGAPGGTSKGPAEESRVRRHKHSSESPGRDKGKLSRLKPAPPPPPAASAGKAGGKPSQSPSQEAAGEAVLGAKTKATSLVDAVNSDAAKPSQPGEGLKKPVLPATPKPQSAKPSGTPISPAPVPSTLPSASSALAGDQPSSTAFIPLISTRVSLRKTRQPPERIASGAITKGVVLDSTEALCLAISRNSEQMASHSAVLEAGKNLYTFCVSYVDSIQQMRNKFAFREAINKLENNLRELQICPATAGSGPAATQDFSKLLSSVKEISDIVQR
# LTK = target: T4, LTK (Homo sapiens, UniProt P29376)
# T4 construct: purchased Eurofins DiscoverX KINOMEscan (scanTK)
# T4 sequence (P29376 17-864): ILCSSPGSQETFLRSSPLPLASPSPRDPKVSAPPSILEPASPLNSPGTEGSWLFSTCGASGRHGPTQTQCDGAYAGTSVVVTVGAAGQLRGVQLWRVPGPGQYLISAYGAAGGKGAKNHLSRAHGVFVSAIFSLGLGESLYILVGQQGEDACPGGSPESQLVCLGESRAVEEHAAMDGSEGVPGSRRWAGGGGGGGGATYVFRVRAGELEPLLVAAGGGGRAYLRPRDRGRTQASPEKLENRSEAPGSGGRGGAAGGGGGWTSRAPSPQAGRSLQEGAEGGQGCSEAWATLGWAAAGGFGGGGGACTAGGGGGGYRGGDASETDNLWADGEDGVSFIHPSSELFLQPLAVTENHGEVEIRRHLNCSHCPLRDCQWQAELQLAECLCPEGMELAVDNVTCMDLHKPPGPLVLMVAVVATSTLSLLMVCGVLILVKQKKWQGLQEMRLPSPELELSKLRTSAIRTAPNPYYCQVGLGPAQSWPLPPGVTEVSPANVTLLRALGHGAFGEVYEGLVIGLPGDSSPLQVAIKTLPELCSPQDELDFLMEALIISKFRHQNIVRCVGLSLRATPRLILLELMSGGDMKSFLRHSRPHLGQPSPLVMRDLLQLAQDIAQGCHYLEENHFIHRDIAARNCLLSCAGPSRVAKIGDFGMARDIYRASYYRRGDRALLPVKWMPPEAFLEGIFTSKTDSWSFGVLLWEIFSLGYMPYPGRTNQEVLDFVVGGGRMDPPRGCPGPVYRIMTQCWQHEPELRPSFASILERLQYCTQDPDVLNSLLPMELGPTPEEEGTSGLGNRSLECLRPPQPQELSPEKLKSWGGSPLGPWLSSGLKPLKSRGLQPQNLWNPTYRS
# EPHB4 = target: T5, EPHB4 (Homo sapiens, UniProt P54760)
# T5 construct: purchased Eurofins DiscoverX KINOMEscan (scanTK)
# T5 sequence (P54760 16-987): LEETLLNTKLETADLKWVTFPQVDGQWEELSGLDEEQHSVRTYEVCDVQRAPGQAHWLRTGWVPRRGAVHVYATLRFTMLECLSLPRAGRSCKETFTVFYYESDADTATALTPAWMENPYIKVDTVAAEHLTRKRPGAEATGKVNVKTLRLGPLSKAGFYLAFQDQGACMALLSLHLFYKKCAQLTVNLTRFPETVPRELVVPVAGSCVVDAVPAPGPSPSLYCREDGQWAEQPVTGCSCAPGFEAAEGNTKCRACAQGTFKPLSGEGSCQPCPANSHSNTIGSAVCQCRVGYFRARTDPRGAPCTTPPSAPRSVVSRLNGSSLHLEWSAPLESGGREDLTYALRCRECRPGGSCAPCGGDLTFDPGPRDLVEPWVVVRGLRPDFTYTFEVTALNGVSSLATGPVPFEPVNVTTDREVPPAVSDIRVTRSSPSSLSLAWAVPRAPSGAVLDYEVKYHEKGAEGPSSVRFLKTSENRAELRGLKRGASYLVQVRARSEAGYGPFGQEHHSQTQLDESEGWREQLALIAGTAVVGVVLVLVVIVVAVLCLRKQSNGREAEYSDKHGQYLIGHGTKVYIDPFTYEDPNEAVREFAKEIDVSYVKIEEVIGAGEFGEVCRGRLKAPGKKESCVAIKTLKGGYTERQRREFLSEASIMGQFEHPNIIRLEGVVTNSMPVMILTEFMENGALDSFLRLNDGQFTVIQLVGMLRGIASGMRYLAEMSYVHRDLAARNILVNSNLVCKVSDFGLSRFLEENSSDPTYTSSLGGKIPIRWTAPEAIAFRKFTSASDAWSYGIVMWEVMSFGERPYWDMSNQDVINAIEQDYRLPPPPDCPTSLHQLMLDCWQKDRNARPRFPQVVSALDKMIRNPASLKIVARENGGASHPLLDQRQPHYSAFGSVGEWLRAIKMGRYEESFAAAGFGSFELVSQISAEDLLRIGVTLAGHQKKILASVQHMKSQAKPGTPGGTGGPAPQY
# SYK = target: T6, SYK (Homo sapiens, UniProt P43405)
# T6 construct: purchased Eurofins DiscoverX KINOMEscan (scanTK)
# MERTK = target: T7, MERTK (Homo sapiens, UniProt Q12866)
# T7 construct: purchased Eurofins DiscoverX KINOMEscan (scanTK)
# T7 sequence (Q12866 21-999): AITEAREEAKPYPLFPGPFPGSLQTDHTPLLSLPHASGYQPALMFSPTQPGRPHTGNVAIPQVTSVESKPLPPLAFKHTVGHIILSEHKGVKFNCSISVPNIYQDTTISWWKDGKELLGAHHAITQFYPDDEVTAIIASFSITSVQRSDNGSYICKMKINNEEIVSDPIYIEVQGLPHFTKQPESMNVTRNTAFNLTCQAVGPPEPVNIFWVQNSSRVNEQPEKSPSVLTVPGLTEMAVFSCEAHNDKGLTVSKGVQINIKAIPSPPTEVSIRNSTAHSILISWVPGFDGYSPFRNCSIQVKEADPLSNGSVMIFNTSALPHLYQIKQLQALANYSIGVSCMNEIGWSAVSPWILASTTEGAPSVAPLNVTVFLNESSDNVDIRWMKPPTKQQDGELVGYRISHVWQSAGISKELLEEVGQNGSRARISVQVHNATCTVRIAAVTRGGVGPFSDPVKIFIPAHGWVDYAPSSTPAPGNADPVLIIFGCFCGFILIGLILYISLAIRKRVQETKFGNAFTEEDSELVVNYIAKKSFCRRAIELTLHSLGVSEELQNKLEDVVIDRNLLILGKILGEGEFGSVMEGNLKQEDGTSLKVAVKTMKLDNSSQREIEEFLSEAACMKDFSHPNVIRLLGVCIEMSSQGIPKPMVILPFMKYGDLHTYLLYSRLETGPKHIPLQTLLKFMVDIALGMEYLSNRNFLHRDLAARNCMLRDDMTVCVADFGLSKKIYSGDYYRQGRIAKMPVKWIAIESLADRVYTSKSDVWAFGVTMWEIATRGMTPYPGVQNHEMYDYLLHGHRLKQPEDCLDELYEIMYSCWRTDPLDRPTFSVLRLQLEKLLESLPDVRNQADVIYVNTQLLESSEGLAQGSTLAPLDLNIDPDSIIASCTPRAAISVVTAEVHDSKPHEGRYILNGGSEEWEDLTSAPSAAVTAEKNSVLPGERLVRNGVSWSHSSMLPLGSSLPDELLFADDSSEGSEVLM
Structure (SMILES),"remaining binding at 1 µM (ZAP70; @1000nM, read-out: %Control)",remaining binding at 1 µM (ZAP70; read-out: %Control @1000nM),difference in %Control from compound Ib at 1 µM (FLT4; @1000nM),"remaining binding at 1 µM (FLT4; @1000nM, read-out: %Control)",remaining binding at 1 µM (FLT4; read-out: %Control @1000nM),difference in %Control from reference compound Ib at 1 µM ([1]; @1000nM),"remaining binding at 1 µM ([1]; @1000nM, read-out: %Control)",remaining binding at 1 µM ([1]; read-out: %Control @1000nM),"remaining binding at 1 µM (LTK; @1000nM, read-out: %Control)",remaining binding at 1 µM (LTK; read-out: %Control @1000nM),difference in %Control from compound Ib at 1 µM (EPHB4; @1000nM),"remaining binding at 1 µM (EPHB4; @1000nM, read-out: %Control)",remaining binding at 1 µM (EPHB4; read-out: %Control @1000nM),difference in %Control versus compound Ib at 1 µM (SYK; @1000nM),"remaining binding at 1 µM (SYK; @1000nM, read-out: %Control)",remaining binding at 1 µM (SYK; read-out: %Control @1000nM),"remaining binding at 1 µM (MERTK; @1000nM, read-out: %Control)",remaining binding at 1 µM (MERTK; read-out: %Control @1000nM)
"CNC(=O)c1cnc(S(C)(=O)=O)nc1N1CCCC(n2nc(-c3ccc(Oc4ccccc4)cc3)c3c(N)ncnc32)C1 (stereo not drawn) [Compound 8d, 4-(3-(4-Amino-3-(4-phenoxyphenyl)-1H-pyrazolo[3,4-d]pyrimidin-1-yl)piperidin-1-yl)-N-methyl-2-(methylsulfonyl)pyrimidine-5-carboxamide]",100%,100%,67%,94%,94%,17%,90%,90%,100%,100%,0%,100%,100%,-2%,89%,89%,49%,49%
"CCOC(=O)c1cnc(S(C)(=O)=O)nc1N1CCC[C@@H](n2nc(-c3ccc(Oc4ccccc4)cc3)c3c(N)ncnc32)C1 [Compound 8c, Ethyl (R)-4-(3-(4-Amino-3-(4-phenoxyphenyl)-1H-pyrazolo[3,4-d]pyrimidin-1-yl)piperidin-1-yl)-2-(methylsulfonyl)pyrimidine-5-carboxylate]",100%,100%,73%,100%,100%,15%,88%,88%,100%,100%,-14%,86%,86%,9%,100%,100%,71%,71%
"Cc1cnc(S(C)(=O)=O)nc1N1CCCC(n2nc(-c3ccc(Oc4ccccc4)cc3)c3c(N)ncnc32)C1 (stereo not drawn) [Compound 8a, 1-(1-(5-Methyl-2-(methylsulfonyl)pyrimidin-4-yl)piperidin-3-yl)-3-(4-phenoxyphenyl)-1H-pyrazolo[3,4-d]pyrimidin-4-amine]",92%,92%,61%,88%,88%,17%,90%,90%,93%,93%,0%,100%,100%,-7%,84%,84%,60%,60%
"C=CC(=O)N1CCC[C@@H](n2nc(-c3ccc(Oc4ccccc4)cc3)c3c(N)ncnc32)C1 [Compound 1g, Ibrutinib, reference compound]",,,,27%,27%,,73%,73%,81%,81%,,100%,100%,,91%,91%,38%,38%
"COC(=O)c1cnc(S(C)(=O)=O)nc1N1CCCC(n2nc(-c3ccc(Oc4ccccc4)cc3)c3c(N)ncnc32)C1 (stereo not drawn) [Compound 8b, Methyl 4-(3-(4-Amino-3-(4-phenoxyphenyl)-1H-pyrazolo[3,4-d]pyrimidin-1-yl)piperidin-1-yl)-2-(methylsulfonyl)pyrimidine-5-carboxylate]",94%,94%,62%,89%,89%,6%,79%,79%,94%,94%,-2%,98%,98%,-13%,78%,78%,67%,67%
